US20230015949A1, “NEISSERIA TREATMENT USING CANNABINOIDS” (priority 2019, published 2023)
In brackets after ≈: the same amount, converted by molar mass. Like-named read-outs stand apart in the source and are kept apart here.

Experiments:
[1] = system: Staphylococcus aureus ATCC 29213; experiment: Broth microdilution MIC assay, quality control strain (Example 2); format: cell-based; conditions: ATCC29213, S. aureus ATCC 29213 (QC), CAMHB
Experimental: (§1) Following incubation, colonies were harvested from these plates and cell suspensions prepared and frozen at −80° C. with a cryoprotectant. Prior to testing, N. gonorrhoeae isolates were streaked onto Chocolate Agar [Becton Dickinson, (BD), Sparks, Md.; Lot No. 922807]; Staphylococcus aureus ATCC 29213 tested for quality control (QC) purposes was streaked onto Trypticase Soy Agar with 5% Sheep Blood (TSA II; BD; Lot No. 9219399).
Cation-adjusted Mueller Hinton broth (CAMHB; BD; Lot No. 9019592) was used for MIC testing of S. aureus ATCC 29213 for QC purposes.
(§2) MIC values were determined using a broth microdilution procedure described by CLSI (1, 2). Automated liquid handlers (Multidrop 384, Labsystems, Helsinki, Finland; Biomek 2000 and Biomek FX, Beckman Coulter, Fullerton Calif.) were used to conduct serial dilutions and liquid transfers.
(§3) To prepare the drug mother plates, which would provide the serial drug dilutions for the replicate daughter plates, the wells of columns 2 through 12 of standard 96-well microdilution plates (Costar 3795) were filled with 150 μl of the designated diluent for each row of drug. The test articles and comparator compounds (300 μl at 100× the highest concentration to be tested) were dispensed into the appropriate wells in column 1. The Biomek 2000 was then used to make 2-fold serial dilutions in the mother plates from column 1 through column 11. The wells of column 12 contained no drug and served as the organism growth control wells for the assay.
(§4) The daughter plates were loaded with 190 μL per well of the appropriate test medium for the tested organism using the Multidrop 384. The daughter plates were completed on the Biomek FX instrument which transferred 2 μL of drug solution from each well of a mother plate to the corresponding well of each daughter plate in a single step. Daughter plates for the testing of anaerobes were allowed to pre-reduce in the Bactron II anaerobe chamber for 2 hr prior to inoculation.
A standardized inoculum of each test organism was prepared per CLSI methods (1, 2). The inoculum for each organism was dispensed into sterile reservoirs divided by length (Beckman Coulter), and the Biomek 2000 was used to inoculate the plates. Daughter plates were placed on the Biomek 2000 work surface in reverse orientation so that inoculation took place from low to high drug concentration. Anaerobic organisms were inoculated by hand in the Bactron II anaerobic chamber. Bacterial plates were then inoculated with 10 μL of the inoculum resulting in a final cell density of approximately 5×10^5 CFU/mL.
Plates were stacked 3 to 4 high, covered with a lid on the top plate and placed in plastic bags. […] The MIC was read and recorded as the lowest concentration of drug that inhibited visible growth of the organism.

[2] = system: Staphylococcus aureus ATCC 29213; conditions: S. aureus ATCC 29213, CLSI QC ranges shown in parentheses, cited from earlier work
[3] = system: Neisseria gonorrhoeae; experiment: Broth microdilution MIC assay, 30 isolates (Example 2); format: cell-based
Experimental: In this study, the in vitro spectrum of activity of CBD was determined against 30 isolates comprised of reference strains from the WHO, isolates from the CDC antibiotic resistance bank, and clinical isolates from the Micromyx (MMX) repository, with different resistance phenotypes. Assays were conducted following guidelines recommended by the Clinical and Laboratory Standards Institute (CLSI; 1, 2) with the exception that broth microdilution was used instead of agar dilution.
Stock solutions of all compounds were prepared on the day of testing using solvents recommended by CLSI. Stock solutions of all compounds were made at 101× the final testing concentration. CBD was supplied by Cerilliant (Round Rock, Tex.) as a 1 mg/mL methanolic solution which was stored at −20° C. after receipt. Prior to testing, using a 5 mL aliquot of the CBD methanolic solution, the methanol was dried off and the residual CBD was resuspended in 774 μL DMSO resulting in a 6.464 mg/mL solution.
The test organisms evaluated in this study consisted of Neisseria gonorrhoeae isolates from the Micromyx repository and reference isolates from the American Type Culture Collection (ATCC; Manassas, Va.), Centers for Disease Control and Prevention (CDC; Atlanta, Ga.) or the National Collection of Type Cultures (NCTC; Public Health England, Salisbury, UK). Upon initial receipt at Micromyx, the organisms were sub-cultured onto an appropriate agar medium.
as §1
For N. gonorrhoeae, a modified medium described by the ATCC as capable of supporting the growth of N. gonorrhoeae (Neisseria peptone medium) was used for the broth microdilution MIC assay. This medium contained 15 g Oxoid Special Peptone (Lot No. 1280296; Oxoid, Hampshire, UK), 1 g corn starch (Lot No. AD-13344-14; Ward's Science; Rochester, N.Y.), 5 g NaCl (Lot No. 57897; VWR, Radnor, Pa.), 4 g K2HPO4 (Lot No. SLBT7061; Sigma), and 1 g KH2PO4 (Lot No. SLBC1921V; Sigma). After autoclaving, the medium was centrifuged at 5,000×g for 10 min, the supernatant was passed through a 0.45 μm filter, and IsoVitaleX supplement (Lot No. 8323954; BD) was added at 1% (v/v).
as §2, §3, §4

[4] = 30 isolates of N. gonorrhoeae, broth microdilution
[5] = 30 isolates of N. gonorrhoeae, broth microdilution, MIC distribution
[6] = 30 isolates, broth dilution assay, MIC distribution (Table 6)

Structure (SMILES): CO/N=C(\C(=O)N[C@@H]1C(=O)N2C(C(=O)O)=C(CSc3nc(=O)c(=O)[nH]n3C)CS[C@H]12)c1csc(N)n1 [CRO, ceftriaxone]
- MIC [1]: 2 µg/mL (≈ 3.61 µM)
- CLSI QC range of MIC [2]: 1 to 8 µg/mL
- CLSI QC range of MIC ([2]; listed as Ceftriaxone): (1-8)^1 μg/mL
- MIC50 [3, 4]: ≤0.008 µg/mL
- MIC Range [3, 4]: ≤0.008 − 1 μg/mL
- Number of isolates at MIC value 0.015 μg/mL [3, 5]: 5
- Number of isolates at MIC value 0.03 μg/mL [3, 5]: 2
- Number of isolates at MIC value 0.06 μg/mL [3, 5]: 1
- Number of isolates at MIC value 0.5 μg/mL [3, 5]: 1
- Number of isolates at MIC value 1 μg/mL [3, 5]: 1
- Number of isolates at MIC value 2 μg/mL [3, 5]: 0
- Number of isolates at MIC value 4 μg/mL [3, 5]: 0
- Number of isolates at MIC value 8 μg/mL [3, 5]: 0
- Number of isolates at MIC value <0.008 μg/mL [3, 5]: 20
- Number of isolates at MIC value >8 μg/mL [3, 5]: 0
- Number of isolates at MIC value […] [3, 5]: 0
- MIC Range ([3]; 30 isolates of N. gonorrhoeae, broth microdilution, listed as ceftriaxone): ≤0.008 to 1 µg/mL
- Number of isolates at MIC 0.08 μg mL^−1 [3, 6]: 0
- Number of isolates at MIC ≤0.004 μg mL^−1 [3, 6]: 20
- MIC ([3]; N. gonorrhoeae ATCC 49226 (QC), broth microdilution): £0.008 μg/mL
- MIC ([3]; Neisseria gonorrhoeae, ATCC49226, N. gonorrhoeae ATCC 49226 (QC), broth microdilution, read-out: MIC): ≤ 0.008 µg/mL
- MIC ([3]; Neisseria gonorrhoeae, N. gonorrhoeae CDC 0165 (CIP-R, AZI MIC 1), broth microdilution, read-out: MIC): 0.015 µg/mL (≈ 0.027 µM)
- MIC ([3]; Neisseria gonorrhoeae, N. gonorrhoeae CDC 0166 (CIP-R, AZI MIC 1), broth microdilution, read-out: MIC): 0.015 µg/mL (≈ 0.027 µM)
- MIC ([3]; Neisseria gonorrhoeae, N. gonorrhoeae CDC 0167 (CIP-S, AZI MIC 8), broth microdilution, read-out: MIC): ≤ 0.008 µg/mL
- MIC ([3]; Neisseria gonorrhoeae, N. gonorrhoeae CDC 0172 (CIP-R, AZI MIC 0.5), broth microdilution, read-out: MIC): ≤ 0.008 µg/mL
- MIC ([3]; Neisseria gonorrhoeae, N. gonorrhoeae CDC 0175 (CIP-S, AZI MIC 16), broth microdilution, read-out: MIC): ≤ 0.008 µg/mL
- MIC ([3]; Neisseria gonorrhoeae, N. gonorrhoeae CDC 0177 (CIP-S, AZI MIC 2), broth microdilution, read-out: MIC): ≤ 0.008 µg/mL
- MIC ([3]; Neisseria gonorrhoeae, N. gonorrhoeae CDC 0181 (CIP-S, AZI MIC 256), broth microdilution, read-out: MIC): ≤ 0.008 µg/mL
- MIC ([3]; Neisseria gonorrhoeae, N. gonorrhoeae CDC 0194 (CRO-NS, CIP-S, AZI MIC 0.5), broth microdilution, read-out: MIC): 0.03 µg/mL (≈ 0.0541 µM)
- MIC ([3]; Neisseria gonorrhoeae, N. gonorrhoeae MMX 6921 (CIP-R), broth microdilution, read-out: MIC): ≤ 0.008 µg/mL
- MIC ([3]; Neisseria gonorrhoeae, N. gonorrhoeae MMX 6938 (CIP-S), broth microdilution, read-out: MIC): ≤ 0.008 µg/mL
- MIC ([3]; Neisseria gonorrhoeae, N. gonorrhoeae MMX 10409 (CIP-R), broth microdilution, read-out: MIC): 0.015 µg/mL (≈ 0.027 µM)
- MIC ([3]; Neisseria gonorrhoeae, N. gonorrhoeae MMX 10410 (CIP-S), broth microdilution, read-out: MIC): ≤ 0.008 µg/mL
- MIC ([3]; Neisseria gonorrhoeae, N. gonorrhoeae MMX 10447 (CIP-S), broth microdilution, read-out: MIC): ≤ 0.008 µg/mL
- MIC ([3]; Neisseria gonorrhoeae, N. gonorrhoeae MMX 10450 (CIP-S), broth microdilution, read-out: MIC): ≤ 0.008 µg/mL
- MIC ([3]; Neisseria gonorrhoeae, N. gonorrhoeae MMX 10452 (CIP-R), broth microdilution, read-out: MIC): ≤ 0.008 µg/mL
- MIC ([3]; Neisseria gonorrhoeae, N. gonorrhoeae MMX 10454 (CIP-R), broth microdilution, read-out: MIC): 0.015 µg/mL (≈ 0.027 µM)
- MIC ([3]; Neisseria gonorrhoeae, NCTC13477, N. gonorrhoeae NCTC 13477 (WHO F; CIP-S, AZI MIC […]), broth microdilution, read-out: MIC): ≤ 0.008 µg/mL
- MIC ([3]; Neisseria gonorrhoeae, NCTC13478, N. gonorrhoeae NCTC 13478 (WHO G; CIP-I, AZI MIC […]), broth microdilution, read-out: MIC): ≤ 0.008 µg/mL
- MIC ([3]; Neisseria gonorrhoeae, NCTC13479, N. gonorrhoeae NCTC 13479 (WHO K; CIP-R, AZI MIC […]), broth microdilution, read-out: MIC): 0.03 µg/mL (≈ 0.0541 µM)
- MIC ([3]; Neisseria gonorrhoeae, NCTC13480, N. gonorrhoeae NCTC 13480 (WHO L; CIP-R, AZI MIC 0.5), broth microdilution, read-out: MIC): 0.06 µg/mL (≈ 0.108 µM)
- MIC ([3]; Neisseria gonorrhoeae, NCTC13481, N. gonorrhoeae NCTC 13481 (WHO M; CIP-R, AZI MIC […]), broth microdilution, read-out: MIC): ≤ 0.008 µg/mL
- MIC ([3]; Neisseria gonorrhoeae, NCTC13482, N. gonorrhoeae NCTC 13482 (WHO N; CIP-R, AZI MIC […]), broth microdilution, read-out: MIC): ≤ 0.008 µg/mL
- MIC ([3]; Neisseria gonorrhoeae, NCTC13483, N. gonorrhoeae NCTC 13483 (WHO O; CIP-S, AZI MIC […]), broth microdilution, read-out: MIC): ≤ 0.008 µg/mL
- MIC ([3]; Neisseria gonorrhoeae, NCTC13484, N. gonorrhoeae NCTC 13484 (WHO P; CIP-S, AZI MIC 4), broth microdilution, read-out: MIC): ≤ 0.008 µg/mL
- MIC ([3]; Neisseria gonorrhoeae, NCTC13817, N. gonorrhoeae NCTC 13817 (WHO U; CIP-S, AZI MIC 4), broth microdilution, read-out: MIC): ≤ 0.008 µg/mL
- MIC ([3]; Neisseria gonorrhoeae, NCTC13818, N. gonorrhoeae NCTC 13818 (WHO V; CIP-R, AZI MIC >256), broth microdilution, read-out: MIC): ≤ 0.008 µg/mL
- MIC ([3]; Neisseria gonorrhoeae, NCTC13819, N. gonorrhoeae NCTC 13819 (WHO W; CIP-R, AZI MIC 0.5), broth microdilution, read-out: MIC): 0.015 µg/mL (≈ 0.027 µM)
- MIC ([3]; Neisseria gonorrhoeae, NCTC13820, N. gonorrhoeae NCTC 13820 (WHO X; CRO-NS, CIP-R, AZI MIC 0.5), broth microdilution, read-out: MIC): 1 µg/mL (≈ 1.8 µM)
- MIC ([3]; Neisseria gonorrhoeae, NCTC13821, N. gonorrhoeae NCTC 13821 (WHO Y; CIP-R, AZI MIC 1), broth microdilution, read-out: MIC): 0.5 µg/mL (≈ 0.902 µM)
- MIC50 ([3]; Neisseria gonorrhoeae, 30 isolates of N. gonorrhoeae, broth microdilution, read-out: MIC50): ≤ 0.008 µg/mL
- MIC90 ([3]; Neisseria gonorrhoeae, 30 isolates of N. gonorrhoeae, broth microdilution, read-out: MIC90): 0.03 µg/mL (≈ 0.0541 µM)
- MIC ([3]; Neisseria gonorrhoeae, 30 isolates of N. gonorrhoeae, broth microdilution, read-out: MIC Mode): ≤ 0.008 µg/mL
